Key:
Format in all cases: toxicity, cell-based
Fibroblast = test: Incucyte cell viability with human fibroblast; details: 10 µM, compound concentration 10 uM
U2OS = test: Incucyte cell viability with U2OS; details: human, 10 µM, compound concentration 10 uM
HEK-293T = test: Incucyte cell viability with HEK293T; details: human, 10 µM, compound concentration 10 uM
[1] = 0 h, replicate number 1, timepoint 0 hours
[2] = 12 h, replicate number 1, timepoint 12 hours
[3] = 18 h, replicate number 1, timepoint 18 hours
[4] = 24 h, replicate number 1, timepoint 24 hours
[5] = 6 h, replicate number 1, timepoint 6 hours
[6] = 18 h, replicate number 2, timepoint 18 hours
[7] = 24 h, replicate number 2, timepoint 24 hours
[8] = 12 h, replicate number 2, timepoint 12 hours
[9] = 0 h, replicate number 2, timepoint 0 hours
[10] = 6 h, replicate number 2, timepoint 6 hours
Further: filed as whole numbers so only -1 and 0 and 1 occur.

Structure (SMILES)	Growth Rate (Fibroblast; [1])	Growth Rate (Fibroblast; [2])	Growth Rate (Fibroblast; [3])	Growth Rate (Fibroblast; [4])	Growth Rate (U2OS; [1])	Growth Rate (U2OS; [5])	Growth Rate (U2OS; [2])	Growth Rate (U2OS; [3])	Growth Rate (U2OS; [4])	Growth Rate (U2OS; [7])	Growth Rate (HEK-293T; [1])	Growth Rate (HEK-293T; [5])	Growth Rate (HEK-293T; [2])	Growth Rate (HEK-293T; [3])	Growth Rate (HEK-293T; [4])	Growth Rate (Fibroblast; [5])	Growth Rate (HEK-293T; [9])	Growth Rate (U2OS; [10])	Growth Rate (Fibroblast; [10])	Growth Rate (Fibroblast; [8])	other results
CN(C)C(=O)c1ccc(-c2cc(C(=O)N(C)C3CCCC3)no2)cc1O	0	1	1	1	1	1	1	1	1	0	0	1	0	1	1						Growth Rate (U2OS; [6]): 0; Growth Rate (HEK-293T; [8]): 1
CC(=O)[C@@]1(O)CC[C@H]2[C@@H]3C[C@H](C)C4=CC(=O)CC[C@]4(C)[C@H]3CC[C@@]21C	1	1	1	1	1	1	1	1	1		1	0	0	0	0	0	0				Growth Rate (Fibroblast; [9]): 0
CCC1(C2=NCCN2)Cc2ccccc2O1 (configuration not stated) [EFAROXAN]	0	0	0	0	0		0	0	1		1	1	1	1	1	0	0	1			Growth Rate (Fibroblast; [9]): 1; Growth Rate (U2OS; [9]): 1; Growth Rate (U2OS; [8]): 1
CCCCN(CCCC)C(=O)CN1C[C@@H](c2cc(OC)c3c(c2)OCO3)[C@H](C(=O)O)[C@H]1CC(C)(C)CCC [A-545]		0	0	0	0	0	0	0	0			0	0	0	0	0					Growth Rate (U2OS; [8]): 1
N#Cc1c(N)nc(SCC(N)=O)c(C#N)c1-c1ccc(OCC2CC2)cc1	0			1	0		1	1	1	0	0	1	1	0	0			0	0	1	Growth Rate (Fibroblast; [6]): 1; Growth Rate (HEK-293T; [8]): 0
COc1ccc(/C=C/CCCCOc2ccc(C(=O)c3cccc(C(=O)O)c3)cc2CCC(=O)O)cc1	0	0	0	0	0			1	1	0	1	1	1	1	1	1	0	0	0		Growth Rate (U2OS; [8]): 0; Growth Rate (U2OS; [6]): 0; Growth Rate (HEK-293T; [7]): 0
Nc1nc(NCc2ccccc2)nc(-c2cccc(CO)c2)n1 [ZINC32547799]	0	0	0	0	0		1	1	1		0	0	0	0	0	0		0		1	Growth Rate (Fibroblast; [7]): 1
O=C(NOC[C@H](O)CO)c1ccc(F)c(F)c1Nc1ccc(I)cc1F [MIRDAMETINIB]		1	1	1		0	0	0	0		0					1	1		0		Growth Rate (Fibroblast; [9]): 0; Growth Rate (U2OS; [9]): 0; Growth Rate (HEK-293T; [7]): 1
CCCCc1nc2ccc(NC(=O)NC3CCCCC3)cc2n1Cc1ccc(-c2ccccc2C(=O)O)cc1	0	0	1	1	0	0	0	0	0	1	1	0	0	0	0	1	0				Growth Rate (U2OS; [8]): 1; Growth Rate (U2OS; [6]): 1; Growth Rate (HEK-293T; [10]): 1; Growth Rate (HEK-293T; [8]): 1; Growth Rate (HEK-293T; [6]): 1
CN(CCOc1ccc(C[C@H](Nc2ccccc2C(=O)c2ccccc2)C(=O)O)cc1)c1ccccn1.O	0			1	0		0	0	1	0	1	0	1	1	1	1	0	0	0	0	Growth Rate (Fibroblast; [6]): 0; Growth Rate (Fibroblast; [7]): 0; Growth Rate (HEK-293T; [10]): 1; Growth Rate (HEK-293T; [7]): 0
O=C(Nc1cccc2c(=O)cc(-c3nnn[nH]3)oc12)c1ccc(OCCCCc2ccccc2)cc1	0	0	0	0	1	0	0	0	1	0	1	0	0	0	0	0	0			1	Growth Rate (Fibroblast; [9]): 1; Growth Rate (Fibroblast; [6]): 1; Growth Rate (HEK-293T; [10]): 1; Growth Rate (HEK-293T; [7]): 1
C[C@@H]1CCc2ncc(F)cc2[C@H]2CCCN2c2ccn3ncc(c3n2)C(=O)N1 [SELITRECTINIB]		1	1	1	1	0	1	0	1	0	0	0	0	0	0	1	1		0	0	Growth Rate (Fibroblast; [9]): 0; Growth Rate (Fibroblast; [6]): 0; Growth Rate (Fibroblast; [7]): 0; Growth Rate (U2OS; [8]): 0; Growth Rate (HEK-293T; [6]): 1
N#CC1(c2ccccn2)CCN(Cc2cc(C(=O)N3CCCC3)c(=O)n3ccccc23)CC1 [MSD-M1PAM-NC]	0	1	1	0			0	0	0	1	1	1	0	0	0		0		1		Growth Rate (Fibroblast; [6]): 0; Growth Rate (U2OS; [9]): 0; Growth Rate (HEK-293T; [10]): 0
CCCCC[C@H](O)/C=C/[C@@H]1[C@@H](C/C=C\CCCC(=O)O)[C@@H](O)C[C@H]1O [DINOPROST]	0				0		1	1	1		1	0	0	0	0		0	0	1	0	Growth Rate (Fibroblast; [6]): 1; Growth Rate (Fibroblast; [7]): 1

Source: ChEMBL document CHEMBL4689842, “EUbOPEN Chemogenomics Library wave 1” (2021)
